Converted amounts (≈) assume the structure as drawn.
System: C2C12 cells
Assay: Alkaline phosphatase (ALP) activity assay, osteoblastic differentiation of C2C12 cells
Assay type: cell-based
Settings: dose-response 0.1-12.8 μM, 72 h
Method: C2C12 cells were seeded into 24-well plates (1×10^5 cells/well). After culture overnight, the cells were treated with a Wnt activator at 0.8 μM (A) and 1.6 μM (B) for 72 h. The ALP activity was measured by ALP assay kit from AnaSpec (AS-72146). All the values are the average of triple determinations with the s.d. indicated by error bars. *P<0.05, **P<0.01 versus corresponding control value. This experiment is a representation of two such experiments performed with similar data.
C2C12 cells were seeded into 24-well plates (1×10^5 cells/well). After culture overnight, the cells were treated with the noted compounds at 0, 0.1, 0.2, 0.4, 0.8, 1.6, 3.2, 6.4 and 12.8 μM for 72 hours. The ALP activity was measured by ALP assay kit from AnaSpec (AS-72146). All the values are the average of triple determinations with the s.d. indicated by error bars.
Alkaline phosphatase (ALP) activity assay: C2C12 cells in 24-well plates were treated with each individual compound at the indicated concentrations for 72 h. Cells were then harvested for assay of ALP activity with the ALP assay kit (AnaSpec) according to the manufacturers specifications.

SMILES	potency in inducing C2C12 osteoblastic differentiation compared with CI-994
Nc1ccccc1NC(=O)c1ccc(C(=O)NCCN2CCCC3CCCCC32)cn1 (stereo not shown) [Compound 1009]	more potent than CI-994

System: not listed separately
Assay: Aqueous (kinetic) solubility assay in PBS pH 7.4
Assay type: physicochemical
Settings: phosphate-buffered saline, 25 °C, pH 7.4, aqueous buffer, kinetic from dmso stock, PBS pH 7.4, 2% DMSO, two hours, assay range 2-200 μM, read-out: PBS solubility, pH 7.4, μM Exp1
Method: Aqueous solubility assay: Using a 10 mM stock solution of the compound in 100% DMSO, dilutions were prepared to a theoretical concentration of 200 μM in duplicates in phosphate-buffered saline pH 7.4 with 2% final DMSO. In parallel, compound dilutions in 50% acetonitrile/PBS were prepared to theoretical concentrations of 0 μM (blank), 50 μM, 100 μM and 200 μM with 2% final DMSO to generate calibration curves. The experimental compound dilutions in PBS were further allowed to equilibrate at 25° C. on a thermostatic orbital shaker for two hours and then centrifuged at 14000 rpm, 5 min and filtered through HTS filter plates using a vacuum manifold. The supernatants of test compounds were diluted 2-fold with acetonitrile contained 4% DMSO before measuring. Ondansetron was used as reference compound to control proper assay performance. 200 μl of samples were transferred to 96-well plate and measured in 200-550 nm range with 5 nm step. The effective range of this assay is approximately 2-200 μM and the compounds returning values close to the upper limit of the range may have higher actual solubility (e.g. 5 ? deoxy-5-fluorouddine).

solubility at 2 h [µM]	SMILES
109 (≈ 32 µg/mL)	Cc1nccn1CC1CCc2c(c3ccccc3n2C)C1=O (stereo not shown) [Ondansetron, reference compound]
197 (≈ 83 µg/mL)	Nc1ccccc1NC(=O)c1ccc(C(=O)NCCN2CCCC3CCCCC32)cn1 (stereo not shown) [Compound 1009]

Same assay, conditions: phosphate-buffered saline, 25 °C, pH 7.4, aqueous buffer, kinetic from dmso stock, PBS pH 7.4, 2% DMSO, two hours, assay range 2-200 μM, read-out: PBS solubility, pH 7.4, μM Exp2

solubility at 2 h [µM]	SMILES
113 (≈ 33.2 µg/mL)	Cc1nccn1CC1CCc2c(c3ccccc3n2C)C1=O (stereo not shown) [Ondansetron, reference compound]
191 (≈ 80.5 µg/mL)	Nc1ccccc1NC(=O)c1ccc(C(=O)NCCN2CCCC3CCCCC32)cn1 (stereo not shown) [Compound 1009]

Same assay, conditions: phosphate-buffered saline, 25 °C, pH 7.4, aqueous buffer, kinetic from dmso stock, PBS pH 7.4, 2% DMSO, two hours, assay range 2-200 μM, read-out: PBS solubility, pH 7.4, μM Mean

solubility at 2 h [µM]	SMILES
111 (≈ 32.6 µg/mL)	Cc1nccn1CC1CCc2c(c3ccccc3n2C)C1=O (stereo not shown) [Ondansetron, reference compound]
194 (≈ 81.8 µg/mL)	Nc1ccccc1NC(=O)c1ccc(C(=O)NCCN2CCCC3CCCCC32)cn1 (stereo not shown) [Compound 1009]

System: not listed separately
Assay: Metabolic stability in mouse liver microsomes
Assay type: in vitro ADME
Settings: 2 μM, five time points over 40 min, NADPH
Method: Metabolic stability of several compounds (1009, 1011, 1015, 1020, and 1056) and 2 reference compounds (propranolol and imipramine) were determined in mouse liver microsomes at five time points over 40 min using HPLC-MS. Metabolic stability is defined as the percentage of parent compound lost over time in the presence of a metabolically active test system.
Metabolic stability in mouse liver microsomes: Mouse hepatic microsomes were isolated from pooled, perfused livers of Balb/c male mice according to the standard protocol. The batch of microsomes was tested for quality control using Imipramine, Propranolol and Verapamil as reference compounds. Microsomal incubations were carried out in 96-well plates in 5 aliquots of 40 μL each (one for each time point). Liver microsomal incubation medium contained PBS (100 mM, pH 7.4), MgCl2 (3.3 mM), NADPH (3 mM), glucose-6-phosphate (5.3 mM), glucose-6-phosphate dehydrogenase (0.67 units/ml) with 0.42 mg of liver microsomal protein per ml. Control incubations were performed replacing the NADPH-cofactor system with PBS. Test compound (2 μM, final solvent concentration 1.6%) was incubated with microsomes at 37° C., shaking at 100 rpm. Incubations were performed in duplicates. Five time points over 40 minutes had been analyzed. The reactions were stopped by adding 12 volumes of 90% acetonitrile-water to incubation aliquots, followed by protein sedimentation by centrifuging at 5500 rpm for 3 minutes. […]. Supernatants were analyzed using the HPLC system coupled with tandem mass spectrometer.
The elimination constant (kel), half-life (t1/2) and intrinsic clearance (Clint) were determined in plot of […] versus time, using linear regression analysis: […]

stability in mouse hepatic microsomal system	SMILES
good stability	CC(=O)Nc1ccc(C(=O)Nc2ccccc2N)nc1 [Compound 1056]
moderate stability	Nc1ccccc1NC(=O)c1ccc(C(=O)NCCN2CCCC3CCCCC32)cn1 (stereo not shown) [Compound 1009]

System: Wnt/β-catenin signaling
Assay: Luciferase reporter assay (Super8XTOPFlash) for Wnt/β-catenin signaling in HEK293 cells
Assay type: cell-based
Settings: HEK293 cells, 24 h
Method: (§1) (A) structures of niciosamide and CI-994; (B) HEK293 cells were transfected with Super8XTOPFlash and β galactosidase vectors along with Wnt3A or control vector. After 24 hours incubation, cells were treated with CI-994 at the indicated concentration for 24 hr. The luciferase activity was then measured and normalized to the activity of the β-galactosidase. (C) HT1080 cells stably transduced LRP6 with HA tag were treated with niciosamide and CI-994 at the indicated concentrations for 24 h. The levels of HA-LRP6 were examined by Western blot with anti-HA antibody. (D) Western blots showing the depletion of LRP6 after 2 days of transiently transfection of 50 nM LRP6 siRNA in HEK293 cells. ON-TARGETplus double-stranded siRNA oligomers against human LRP6 and non-specific scrambled siRNA control (Stealth RNAi™ siRNA Negative Control, Med GC) were purchased from Thermo Scientific. siRNA LRP6-1, siRNA LRP6-2 and control siRNA were Thermo Scientific catalog numbers J-003845-09, J-003845-11 and 12935300, respectively. (E) HEK293 cells were transfected with LRP6 siRNAs, and after 8 h incubation were further transfected with Super8XTOPFlash construct and β galactosidase-expressing vector. After 24 h incubation, the cells were treated with CI-994 (16 μM) for 24 h. The luciferase activity was then measured and normalized to β-galactosidase activity. All the values are the average of triplicate determinations with the SD values indicated by error bars. **P<0.01 versus corresponding control value.
HEK293 cells were transfected with SuperXTOPFlash and β-galactosidase vectors along with Wnt3A or control vector. After 24 h incubation, cells were treated with 1015 or 1039 at the indicated concentrations for 24 h. The luciferase activity was then measured and normalized to the activity of the β-galactosidase. All the values are the average of triplicate determinations with the SD values indicated by error bars. This experiment is representative of at least three such experiments performed with similar data.
Luciferase reporter assay for Wnt/β-catenin signaling: HEK293 cells were plated into 24-well plates. After overnight culture, the cells were transiently transfected with the Super8XTOPFlash luciferase construct and β-galactosidase-expressing vector along with or without Wnt3A plasmid. After 24 h incubation, cells were treated with each individual compound at the indicated concentrations for 24 h. Cells were then lysed and both luciferase and β-galactosidase activities were determined. The luciferase activity was normalized to the β-galactosidase activity.
HEK293 cells were plated into 24-well plates. After overnight culture, the cells were transiently transfected with the Super8XTOPFlash luciferase construct and β-galactosidase-expressing vector along with the Wnt3A plasmid. After 24 h incubation, the cells were treated with each individual compound at 30-30,000 nM in triplication for 24 h. The cells were then lysed, and luciferase and β-galactosidase activities were determined with the luciferase assay system (Promega, Cat. #E1501) and β-galactosidase assay system (Promega, Cat. #E2000), respectively. The luciferase activity was normalized to the s-galactosidase activity, and the EC50 values were calculated by use of GraphPad software, and shown in the below table. All the EC50 values (mean and SD) are from 3-7 independent experiments.

SMILES	Wnt reporter activity / activation of Wnt/β-catenin signaling
Cc1cc(Cl)ccc1OCCCC(=O)NO [Droxinostat, reference compound]	unable to activate
Nc1ccccc1NC(=O)c1ccc(C(=O)NCC2CCCN2CCc2ccccc2)cn1 (stereo not shown) [Compound 1039]	activate
Cn1cc(CNCC2CCN(c3ncc(C(=O)NO)cn3)CC2)c2ccccc21 [JNJ-26481585, reference compound]	unable to activate
O=C(CCCCCN1C(=O)c2cccc3cccc(c23)C1=O)NO [Scriptaid, reference compound]	unable to activate

Same assay, conditions: Homo sapiens; Wnt3A plasmid-transfected HEK293 cells, 30-30,000 nM, 24 h, mean and SD of 3-7 independent experiments

EC50 [nM]	SMILES
298 ± 25	Nc1ccccc1NC(=O)c1ccc(C(=O)NCC2CCCN2CCc2ccccc2)cn1 (stereo not shown) [Compound 1039]
596 ± 79	COc1ccc(CN2CCC2CNC(=O)c2ccc(C(=O)Nc3ccccc3N)nc2)cc1 (stereo not shown) [Compound 1041]
519 ± 24	CCN1CCCC1CNC(=O)c1ccc(C(=O)Nc2ccccc2N)nc1 (stereo not shown) [Compound 1028]
444 ± 36	Nc1ccccc1NC(=O)c1ccc(C(=O)NCCN2CCC3(CCCCC3)CC2)cn1 [Compound 1013]
532 ± 38	Nc1ccccc1NC(=O)c1ccc(C(=O)NCC2CCCN2C2CCCCC2)cn1 (stereo not shown) [Compound 1046]
601 ± 101	Nc1ccccc1NC(=O)c1ccc(C(=O)NCCN2CCCC3CCCCC32)cn1 (stereo not shown) [Compound 1009]
496 ± 195	CC1CCCC(C)N1CCC(=O)Nc1ccc(C(=O)Nc2ccccc2N)nc1 (stereo not shown) [Compound 1023]
408 ± 77	Nc1ccccc1NC(=O)c1ccc(C(=O)NCC2CCN2C2CCCCCC2)cn1 (stereo not shown) [Compound 1050]
494 ± 147	Nc1ccccc1NC(=O)c1ccc(NC(=O)CCN2CCC[C@@H]3CCCC[C@@H]32)cn1 (racemic) [Compound 1059]
1380 ± 643	Nc1ccccc1NC(=O)c1ccc(C(=O)NCC2CCN2C2CCCC2)cc1 (stereo not shown) [Compound 1021]
507 ± 128	Nc1ccccc1NC(=O)c1ccc(C(=O)NCC2CCN2C2CCCCC2)cn1 (stereo not shown) [Compound 1045]
526 ± 268	Nc1ccccc1NC(=O)c1ccc(C(=O)NCC2CCCN2CC2CCCCC2)cn1 (stereo not shown) [Compound 1038]
483 ± 40	COCCN1CCCC1CNC(=O)c1ccc(C(=O)Nc2ccccc2N)nc1 (stereo not shown) [Compound 1030]

System: LRP6
Assay: Wnt reporter assay in HEK293 cells after LRP6 siRNA knockdown
Assay type: cell-based, human
Settings: CI-994 16 μM, 1011, 1015, 1023 1 μM, 24 h
Method: as §1
(A) HT1080 cells stably transduced with human LRP6 with HA tag were treated with niciosamide (1 μM) and other compounds as noted (1 μM) for 24 hr. The levels of HA-LRP6 were examined by Western blots with anti-HA antibody. All samples were also probed with anti-actin antibody to verify equal loading. This experiment is a representative of two such experiments performed with similar data. (B) N2a cells were treated with 1015 and 1011 at the indicated concentrations for 24 h. The expression levels of LRP6, β-catenin and actin were examined by Western blotting. This experiment is a representative of three such experiments performed with similar data. (C) HEK293 cells were transfected with LRP6 siRNAs, and after 8 h incubation were further transfected with Super8XTOPFlash construct and β galactosidase-expressing vector. ON-TARGETplus double-stranded siRNA oligomers against human LRP6 and non-specific scrambled siRNA control (Stealth RNAi™ siRNA Negative Control, Med GC) were purchased from Thermo Scientific. siRNA LRP6-1, siRNA LRP6-2 and control siRNA were Thermo Scientific catalog numbers J-003845-09, J-003845-11 and 12935300, respectively. […] The luciferase activity was then measured and normalized to β-galactosidase activity. […]

SMILES	effect of knockdown of LRP6 expression on the compound's effect on Wnt/β-catenin signaling
CC1CCCC(C)N1CCC(=O)Nc1ccc(C(=O)Nc2ccccc2N)nc1 (stereo not shown) [Compound 1023]	significantly attenuated

System: Wnt/β-catenin signaling
Assay: not given
Settings: cancer cells; cited from earlier work

SMILES	Wnt/β-catenin signaling (by inducing LRP6 degradation)
O=C(Nc1ccc([N+](=O)[O-])cc1Cl)c1cc(Cl)ccc1O [Niclosamide, 5-chloro-N-[2-chloro-4-nitrophenyl]-2-hydroxy benzamide]	suppresses

Source: US20220267271A1, “WNT ACTIVATORS AND METHODS OF USE” (MAYO FOUNDATION FOR MEDICAL EDUCATION AND RESEARCH, priority 2019, published 2022)
